# Calls of active or inactive are those of the source.
# Columns and labels:
# [1] = molecular target: FAD-linked sulfhydryl oxidase ALR (Homo sapiens, UniProt P55789); assay: inhibitors of human ALR sulfhydryl oxidase, dose response, biochemical, H2O2 detection, luminescence, cherry-pick (AID 493248)
# [2] = cells; type: functional
# [3] = tested on: H9c2; assay: cells; type: functional, cell-based; conditions: Rattus norvegicus, H9c2, Myocardium;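 further: confirmatory concentration-response retest of ultra-high-throughput screening hits for modulation of myocardial damage; cell death induced by hydrogen peroxide oxidative stress; compound pretreatment for 60 min then peroxide exposure for 2 h; potency is for protecting the cells against peroxide damage rather than for killing them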
# [4] = molecular target: T1, Ubiquitin-conjugating enzyme E2 N (Homo sapiens, UniProt P61088); type: functional;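 further: Dose-response confirmation in a TR-FRET assay detecting UBC13-driven polyubiquitin chain formation, inhibition measured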
# T1 sequence (P61088 whole entry): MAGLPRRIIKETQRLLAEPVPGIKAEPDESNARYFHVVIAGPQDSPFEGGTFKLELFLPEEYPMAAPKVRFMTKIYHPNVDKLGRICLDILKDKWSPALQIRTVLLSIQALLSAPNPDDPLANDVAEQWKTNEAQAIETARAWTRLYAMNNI
# [5] = molecular target: T2, DNA repair protein RAD52 homolog (Homo sapiens, UniProt P43351); type: functional, biochemical
# T2 sequence (P43351 whole entry): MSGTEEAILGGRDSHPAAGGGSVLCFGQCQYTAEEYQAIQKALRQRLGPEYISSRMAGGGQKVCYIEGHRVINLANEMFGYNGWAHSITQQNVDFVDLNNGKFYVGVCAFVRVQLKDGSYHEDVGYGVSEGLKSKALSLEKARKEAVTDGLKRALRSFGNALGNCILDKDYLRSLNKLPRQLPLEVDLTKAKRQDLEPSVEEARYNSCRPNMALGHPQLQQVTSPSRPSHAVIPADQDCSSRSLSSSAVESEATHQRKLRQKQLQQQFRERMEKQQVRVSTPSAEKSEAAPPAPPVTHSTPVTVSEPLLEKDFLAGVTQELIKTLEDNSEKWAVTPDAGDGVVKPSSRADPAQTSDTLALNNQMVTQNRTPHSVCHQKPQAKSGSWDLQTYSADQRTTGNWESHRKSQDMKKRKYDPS
# [6] = Luminescence Cell-Based Dose Confirmation HTS to Identify Activators of 5'UTR Stem-Loop Driven Alpha-Synuclein mRNA Translation in H4 Neuroglioblastoma Cells. [Related pubchem assays: 1829 (Project Summary), 1814 (Primary HTS)]; type: functional
# [7] = tested on: H4; assay: Luminescence Cell-Based Dose Response HTS to Identify Activators of 5'UTR Stem-Loop Driven Prion Protein mRNA Translation in H4 Neuroglioblastoma Cells. [Related pubchem assays: 1829 (Project Summary), 1814 (Primary HTS)]; type: functional; conditions: Homo sapiens
# [8] = Luminescence Cell-Based Dose Response HTS to Identify Activators of Luciferase Translation or Activity in H4 […] Cells. [Related pubchem assays: 1829 (Project Summary), 1814 (Primary HTS)]; type: functional
# [9] = Luminescence Cell-Based Dose Retest to Confirm Inhibitors of Cancer Stem Cells. [Related pubchem assays (depositor defined):AID2717, AID2721]; type: functional; conditions: Homo sapiens
# [10] = molecular target: T3, Replicative DNA helicase DnaB (Mycobacterium tuberculosis, UniProt P9WMR3); assay: DnaB intein splicing inhibitors, dose response, biochemical, cell-free fluorescence (AID 449749); type: functional
# T3 sequence (P9WMR3 whole entry): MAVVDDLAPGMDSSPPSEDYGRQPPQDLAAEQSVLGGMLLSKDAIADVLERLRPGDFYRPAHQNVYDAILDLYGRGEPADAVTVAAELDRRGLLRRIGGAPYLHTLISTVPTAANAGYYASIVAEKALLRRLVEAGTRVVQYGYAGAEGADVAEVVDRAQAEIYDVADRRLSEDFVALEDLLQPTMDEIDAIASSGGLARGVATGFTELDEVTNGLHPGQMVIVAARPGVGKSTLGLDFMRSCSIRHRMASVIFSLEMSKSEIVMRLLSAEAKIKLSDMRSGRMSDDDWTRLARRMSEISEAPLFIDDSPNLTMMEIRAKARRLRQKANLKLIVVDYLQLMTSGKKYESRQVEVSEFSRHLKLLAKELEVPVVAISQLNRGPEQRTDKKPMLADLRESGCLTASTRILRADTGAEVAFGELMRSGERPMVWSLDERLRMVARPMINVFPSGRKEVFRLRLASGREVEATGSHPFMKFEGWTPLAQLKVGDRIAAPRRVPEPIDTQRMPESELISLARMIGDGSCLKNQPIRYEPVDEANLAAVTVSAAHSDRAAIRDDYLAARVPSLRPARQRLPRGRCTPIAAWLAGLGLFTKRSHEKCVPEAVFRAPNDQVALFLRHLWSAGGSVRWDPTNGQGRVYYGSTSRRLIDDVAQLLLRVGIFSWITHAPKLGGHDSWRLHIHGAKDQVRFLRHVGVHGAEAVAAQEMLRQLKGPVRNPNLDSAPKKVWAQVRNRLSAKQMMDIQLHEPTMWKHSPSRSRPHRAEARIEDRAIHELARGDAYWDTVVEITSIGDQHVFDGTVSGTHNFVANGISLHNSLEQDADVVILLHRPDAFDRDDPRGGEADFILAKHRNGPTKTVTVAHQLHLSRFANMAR
# [11] = molecular target: T4, Protein RecA (Mycobacterium tuberculosis, UniProt P9WHJ3); assay: Fluorescence Cell-Free Homogeneous Dose Retest to Identify Inhibitors of RecA-Intein Splicing Activity. [Related pubchem assays (depositor defined):AID2097, AID2223, AID489010, AID492950]; type: functional
# T4 sequence (P9WHJ3 whole entry): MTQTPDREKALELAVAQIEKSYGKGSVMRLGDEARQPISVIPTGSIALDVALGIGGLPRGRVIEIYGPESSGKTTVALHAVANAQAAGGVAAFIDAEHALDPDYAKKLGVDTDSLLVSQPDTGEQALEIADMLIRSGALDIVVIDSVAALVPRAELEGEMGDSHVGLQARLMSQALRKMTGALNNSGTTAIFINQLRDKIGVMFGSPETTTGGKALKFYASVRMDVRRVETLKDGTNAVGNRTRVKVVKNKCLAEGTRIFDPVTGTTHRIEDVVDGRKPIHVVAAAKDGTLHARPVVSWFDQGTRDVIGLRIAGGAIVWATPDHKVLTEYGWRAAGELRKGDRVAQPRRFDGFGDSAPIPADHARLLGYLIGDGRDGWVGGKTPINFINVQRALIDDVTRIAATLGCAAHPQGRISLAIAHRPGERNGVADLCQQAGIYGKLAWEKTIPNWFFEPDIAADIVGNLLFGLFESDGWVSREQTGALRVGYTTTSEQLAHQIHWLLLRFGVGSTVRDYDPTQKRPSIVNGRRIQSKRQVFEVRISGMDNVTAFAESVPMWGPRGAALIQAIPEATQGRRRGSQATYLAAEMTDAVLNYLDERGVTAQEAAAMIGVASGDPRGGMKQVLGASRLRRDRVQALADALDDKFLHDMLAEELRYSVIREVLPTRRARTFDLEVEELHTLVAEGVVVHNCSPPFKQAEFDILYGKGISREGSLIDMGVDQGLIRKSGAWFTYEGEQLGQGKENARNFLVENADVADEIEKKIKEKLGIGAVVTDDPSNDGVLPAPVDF
# [12] = molecular target: T5, Rac GTPase-activating protein 1 (Homo sapiens, UniProt Q9H0H5); assay: MgcRacGAP GTPase-activating activity inhibitors, confirmation, biochemical, ADP Hunter fluorescence, primary and confirmatory (AID 624330); type: functional
# T5 sequence (Q9H0H5 whole entry): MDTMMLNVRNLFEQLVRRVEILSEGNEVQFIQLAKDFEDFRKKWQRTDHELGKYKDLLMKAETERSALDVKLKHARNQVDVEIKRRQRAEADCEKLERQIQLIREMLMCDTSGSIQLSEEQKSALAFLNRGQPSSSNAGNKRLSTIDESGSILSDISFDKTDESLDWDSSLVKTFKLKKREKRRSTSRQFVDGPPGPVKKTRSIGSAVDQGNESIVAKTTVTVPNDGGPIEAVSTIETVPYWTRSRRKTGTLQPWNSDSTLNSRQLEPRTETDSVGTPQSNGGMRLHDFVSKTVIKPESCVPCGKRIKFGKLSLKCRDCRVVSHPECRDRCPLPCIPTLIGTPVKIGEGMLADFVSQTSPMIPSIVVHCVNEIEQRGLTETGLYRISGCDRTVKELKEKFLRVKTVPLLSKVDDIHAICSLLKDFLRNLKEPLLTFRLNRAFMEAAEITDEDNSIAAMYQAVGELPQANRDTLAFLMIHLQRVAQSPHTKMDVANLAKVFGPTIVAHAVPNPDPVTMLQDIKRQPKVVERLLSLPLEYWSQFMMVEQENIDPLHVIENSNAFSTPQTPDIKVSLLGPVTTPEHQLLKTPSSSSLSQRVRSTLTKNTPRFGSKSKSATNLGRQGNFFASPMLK
# [13] = inhibitors of intracellular T. cruzi replication, confirmation, NIH3T3 host cells, beta-gal luminescence (AID 2044); type: functional, cell-based;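 further: intracellular parasites grown in NIH/3T3 mouse fibroblasts as host cells; luminescent beta-galactosidase reporter signal from transgenic T. cruzi replicating inside host cells; inhibitors lower the luminescence signal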
# [14] = cytotoxicity toward NIH3T3 fibroblasts, dose response, counter-screen, cell-based, ATP luminescence, mouse fibroblasts (AID 2010); type: functional; conditions: NIH3T3;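 further: cells exposed to compound for about 90 hours before reading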
# [15] = molecular target: T6, RNA-binding protein pos-1 (Caenorhabditis elegans, UniProt G5EF15); assay: inhibitors of POS-1/mex-3 RNA binding, dose response, biochemical, fluorescence polarization (AID 1964);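 further: purified POS-1 fused to maltose binding protein made in E. coli; potency of compounds blocking POS-1 binding to fluorescent RNA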
# T6 sequence (G5EF15 whole entry): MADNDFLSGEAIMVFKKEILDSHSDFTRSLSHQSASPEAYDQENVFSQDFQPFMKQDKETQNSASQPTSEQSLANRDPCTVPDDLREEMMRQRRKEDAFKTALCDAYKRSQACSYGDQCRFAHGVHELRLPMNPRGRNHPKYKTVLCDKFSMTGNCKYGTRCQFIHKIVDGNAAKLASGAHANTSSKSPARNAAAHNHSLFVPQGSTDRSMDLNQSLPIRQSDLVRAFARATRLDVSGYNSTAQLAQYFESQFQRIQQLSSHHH
# [16] = molecular target: T7, Zinc finger protein mex-5 (Caenorhabditis elegans, UniProt Q9XUB2); assay: MEX-5/TCR-2 RNA interaction inhibitors, dose response, biochemical, C. elegans, fluorescence polarization (AID 1960)
# T7 sequence (Q9XUB2 whole entry): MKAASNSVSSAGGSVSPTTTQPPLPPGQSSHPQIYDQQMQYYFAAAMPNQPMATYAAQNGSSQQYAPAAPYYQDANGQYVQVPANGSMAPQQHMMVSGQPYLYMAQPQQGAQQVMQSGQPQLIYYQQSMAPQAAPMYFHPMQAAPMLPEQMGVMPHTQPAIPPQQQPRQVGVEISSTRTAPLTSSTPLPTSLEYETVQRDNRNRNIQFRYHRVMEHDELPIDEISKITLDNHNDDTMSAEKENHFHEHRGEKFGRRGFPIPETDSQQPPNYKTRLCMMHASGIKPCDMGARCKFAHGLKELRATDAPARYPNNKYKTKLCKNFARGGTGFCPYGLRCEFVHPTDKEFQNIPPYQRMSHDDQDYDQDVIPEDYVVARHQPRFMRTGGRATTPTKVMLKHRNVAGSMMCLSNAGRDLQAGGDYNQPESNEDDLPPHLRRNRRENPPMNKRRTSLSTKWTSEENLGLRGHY
# Chain of FAD-linked sulfhydryl oxidase ALR (P55789 whole entry): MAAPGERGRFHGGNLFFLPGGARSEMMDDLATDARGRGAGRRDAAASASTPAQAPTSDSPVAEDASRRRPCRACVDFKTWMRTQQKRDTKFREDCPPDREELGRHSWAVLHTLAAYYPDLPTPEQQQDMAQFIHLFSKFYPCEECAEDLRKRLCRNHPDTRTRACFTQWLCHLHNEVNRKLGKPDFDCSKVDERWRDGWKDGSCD
smiles,measurement,setting,value
Cn1c(S)nnc1CSCc1ccc(Cl)c(Cl)c1,AC50,[1],3.93 µM (active)
COc1cc(OC)c2ccc(=O)oc2c1C(CC(=O)N1CCCC1)c1ccc(N(C)C)cc1 (stereo not given),AC50,[1],2.89 µM (active)
O=C(c1ccc([N+](=O)[O-])o1)N1CCN(Cc2ccccc2)CC1,IC50,[2],0.55 µM (active)
O=C(NCCc1c[nH]c2ccccc12)C(=O)NCC(c1ccco1)N1CCN(c2ccccc2F)CC1 (stereo not given),IC50,[3],12.2 µM (active)
Brc1ccc(-c2ccc(CNCc3ccccn3)o2)cc1,IC50,[2],1.25 µM (active)
CCN(C(=O)CN1CCN(c2ccccc2O)CC1)c1c(N)n(Cc2ccccc2)c(=O)[nH]c1=O,AC50,[1],16.2 µM (active)
Cc1ccc(C(=O)N/C(=C\c2ccc(-c3cccc([N+](=O)[O-])c3)o2)C(=O)NCCCN(C)C)cc1,IC50,[4],> 20 µM (inactive)
same,AC50,[5],24.7 µM (active)
CCN1CCCC(OC(=O)c2cc(-c3ccc(C)cc3)nc3ccccc23)C1 (stereo not given),EC50,[6],> 120 µM (not active)
same,EC50,[7],> 120 µM (not active)
same,AC50,[5],8.59 µM (active)
same,EC50,[8],31.1 µM (active)
C[C@H](NC(=O)c1[nH]cnc1C(=O)NCC(=O)OCc1ccccc1)c1ccccc1,IC50,[3],> 79 µM (inactive)
CCOCc1c(C(=O)NC2=C(C(=O)OCC)C(CC)=Nc3ccccc3N2)oc2ccccc12,IC50,[3],> 79 µM (inactive)
c1ccc2c(c1)nc(Nc1ccc3c(c1)OCO3)c1nnnn12,IC50,[3],5.99 µM (active)
O=C(Nc1cccc([N+](=O)[O-])c1)c1[nH]ncc1Cl,AC50,[1],0.847 µM (active)
COc1ccc(CNc2nc3ccccc3n2C(C)C)c(O)c1,AC50,[1],0.146 µM (active)
Cc1cc(C(=O)NNc2ccc(F)cc2)no1,AC50,[9],2.05 µM (active)
same,AC50,[1],10.5 µM (active)
Cc1ccc(S(=O)(=O)N(C(=O)c2ccncc2)c2ccc(OC(=O)c3ccncc3)c3ccccc23)c(C)c1,AC50,[10],15.4 µM (active)
same,EC50,[11],10 µM (active)
CCOC(=O)CSc1nnc(CSc2nc(O)c3c4c(sc3n2)CCC4)n1C,IC50,[3],> 79 µM (inactive)
COc1ccc(N2CCN(C(=O)NC3CCCCC3)CC2)cc1,IC50,[12],137 µM (active)
same,AC50,[1],5.03 µM (active)
O=C(CSc1nc(O)c2ccccc2n1)N1CCN(S(=O)(=O)c2ccccc2)CC1,IC50,[3],> 79 µM (inactive)
Cc1ccc(-c2nnc(COC(=O)c3cccs3)o2)cc1,IC50,[2],17.5 µM (active)
O=C(c1ccc([N+](=O)[O-])cc1[N+](=O)[O-])N1CCc2ccccc21,EC50,[13],0.7 µM (active)
same,EC50,[14],> 60 µM (not active)
same,IC50,[2],0.21 µM (active)
O=C(Cc1nnc(O)c2ccccc12)OCC(=O)c1ccccc1,IC50,[3],20.5 µM (active)
Cc1ccc(/N=C/c2cc(Br)cc(Cl)c2O)cc1,EC50,[15],> 300 µM (not active)
same,EC50,[16],> 300 µM (not active)
same,IC50,[3],10.4 µM (active)
COc1cc(/C(C)=N/NC(=O)CN2CCN(S(=O)(=O)c3ccc(C)cc3)CC2)ccc1O,AC50,[1],3.76 µM (active)
Cn1cccc1CC(=O)N/N=C/c1ccc([N+](=O)[O-])cc1,AC50,[1],6.99 µM (active)
